Data: publication PMC11579512, “Deoxybouvardin-glucoside induces apoptosis in non-small cell lung cancer cells by targeting EGFR/MET and AKT signaling pathway” (EXCLI Journal, 2024)
Read-outs that look alike come from different tables or passages of the source.

What was measured:
[1] = test system: HCC827GR cells; conditions: GEF 1 μM, SAV 2 nM or both
Protocol: (§1) All culture media were supplemented with FBS (10 %) and P/S (1 %), and the cells were grown at 37 °C in 5 % CO2.
(§2) The cells were treated with MTT and incubated for 2 h. The supernatants were removed, and the remaining formazan crystals were dissolved in DMSO before absorbance measurement at 570 nm using a Multiscan GO spectrophotometer (Thermo Fisher Scientific, Vantaa, Finland).

[2] = test system: HaCaT cells; conditions: GEF 1 μM, SAV 2 nM or both
Protocol: as §1, §2

[3] = test system: HCC827GR cells; assay: Soft agar anchorage-independent growth, HCC827GR; type: cell-based, human; conditions: 2 weeks; for colony number, Control % / colony size, Control %: GEF 1 μM, SAV 2 nM or both
Protocol: (§3) The anchorage-independent cell growth assay was performed in 6-well plates with dual agar layers containing 0.6 % agar (lower layer) and 0.3 % agar (upper layer) supplemented with BME, 2 mM L-glutamine, 5 μg/ml gentamicin, and 10 % FBS. After 2 weeks of incubation, the number of colonies was assessed using a microscope (Leica, Wetzlar, Germany), and the mean colony area was analyzed using i-Solution ^TM software (Vancouver, BC, Canada).

[4] = test system: HCC827 cells; assay: MTT viability after NAC pretreatment, HCC827; type: cell-based, human; conditions: HCC827, NAC 4 mM
Protocol: as §1, §2

[5] = test system: HCC827GR cells; assay: MTT viability after NAC pretreatment, HCC827GR; type: cell-based, human; conditions: HCC827GR, NAC 4 mM
Protocol: as §1, §2

[6] = test system: p-EGFR; assay: Immunoblot p-EGFR with NAC pretreatment, HCC827 and HCC827GR cells; type: cell-based, human; conditions: NAC 4 mM; for p-EGFR protein Ratio: control = 1.00
Protocol: (§4) HaCaT cells were grown in DMEM, whereas HCC827 and HCC827GR cells were grown in RPMI 1640. All culture media were supplemented with FBS (10 %) and P/S (1 %), and the cells were grown at 37 °C in 5 % CO2.
(§5) Cells were lysed in RIPA buffer, and protein concentration was determined using a Bio-Rad DC Protein Assay kit (Bio-Rad, Hercules, CA, USA). Protein samples from the cell lysates were resolved by sodium dodecyl sulfate-polyacrylamide gel electrophoresis and then transferred onto polyvinylidene fluoride membranes. The membranes were blocked with 3 % or 5 % skim milk and then incubated at 4 °C overnight with the indicated primary antibodies, followed by the corresponding horseradish peroxidase-conjugated secondary antibodies at RT for 2 h. Protein bands were visualized using western blotting luminol reagent solution and ImageQuant LAS 500 (GE Healthcare, Uppsala, Sweden). The density of the bands was quantified using ImageJ software (NIH, Bethesda, MD, USA).

[7] = test system: p-MET; assay: Immunoblot p-MET with NAC pretreatment, HCC827 and HCC827GR cells; type: cell-based, human; conditions: NAC 4 mM; for p-MET protein Ratio: control = 1.00
Protocol: as §4, §5

[8] = test system: p-AKT; assay: Immunoblot p-AKT with NAC pretreatment, HCC827 and HCC827GR cells; type: cell-based, human; conditions: NAC 4 mM; for p-AKT protein Ratio: control = 1.00
Protocol: as §4, §5

[9] = test system: caspase-3; assay: Immunoblot caspase-3 with NAC pretreatment, HCC827 and HCC827GR cells; type: cell-based, human; conditions: for caspase3 protein/actin / caspase3 protein Ratio: NAC 4 mM; for caspase3 protein Ratio: control = 1.00
Protocol: as §4, §5

[10] = test system: PARP; assay: Immunoblot PARP with NAC pretreatment, HCC827 and HCC827GR cells; type: cell-based, human; conditions: for PARP protein/actin / PARP protein Ratio: NAC 4 mM; for PARP protein Ratio: control = 1.00
Protocol: as §4, §5

[11] = test system: HCC827 cells; conditions: GEF 1 μM, SAV 2 nM or both
Protocol: as §1, §2

[12] = test system: HCC827 cells; assay: Soft agar anchorage-independent growth, HCC827; type: cell-based, human; conditions: 2 weeks; GEF 1 μM, SAV 2 nM or both
Protocol: as §3

[13] = test system: HCC827 cells; assay: MTT viability with Z-VAD-FMK, HCC827; type: cell-based, human
Protocol: as §1, §2

[14] = test system: HCC827GR cells; assay: MTT viability with Z-VAD-FMK, HCC827GR; type: cell-based, human; conditions: Z-VAD-FMK 12 µM, 3 h; DBG 48 h
Protocol: as §1, §2

[15] = NAC 4 mM pretreatment, then DBG

COc1cc2ncnc(Nc3ccc(F)c(Cl)c3)c2cc1OCCCN1CCOCC1 [GEF, gefitinib, reference compound]
cell viability ([1]; 24 h, mean, n=3): 102.64%
cell viability ([1]; 24 h, replicate 1): 103.39%
cell viability ([1]; 24 h, replicate 2): 100.47%
cell viability ([1]; 24 h, replicate 3): 104.06%
cell viability ([1]; 48 h, mean, n=3): 96.35%
cell viability ([1]; 48 h, replicate 1): 98.10%
cell viability ([1]; 48 h, replicate 2): 91.57%
cell viability ([1]; 48 h, replicate 3): 99.38%
cell viability ([2]; 24 h, mean, n=3): 65.33%
cell viability ([2]; 24 h, replicate 1): 65.07%
cell viability ([2]; 24 h, replicate 2): 64.14%
cell viability ([2]; 24 h, replicate 3): 66.80%
cell viability ([2]; 48 h, mean, n=3): 39.87%
cell viability ([2]; 48 h, replicate 1): 39.75%
cell viability ([2]; 48 h, replicate 2): 40.25%
cell viability ([2]; 48 h, replicate 3): 39.62%
colony number, Control % [3]: 84.14%
colony size, Control % [3]: 98.13%

CC(=O)N[C@@H](CS)C(=O)O [NAC, N-acetyl-L-cysteine, reference compound]
cell viability (relative to untreated = 100.00) ([4]; mean of 3): 104.34
cell viability (relative to untreated = 100.00) ([4]; replicate 1): 105.47
cell viability (relative to untreated = 100.00) ([4]; replicate 2): 103.68
cell viability (relative to untreated = 100.00) ([4]; replicate 3): 103.89
cell viability (relative to untreated = 100.00) ([5]; mean of 3): 99.78
cell viability (relative to untreated = 100.00) ([5]; replicate 1): 99.39
cell viability (relative to untreated = 100.00) ([5]; replicate 2): 100.59
cell viability (relative to untreated = 100.00) ([5]; replicate 3): 99.36
p-EGFR protein/actin ([6]; HCC827, control 0.90): 0.68
p-EGFR protein Ratio ([6]; HCC827): 0.76
p-EGFR protein/actin ([6]; HCC827GR, control 0.93): 0.93
p-EGFR protein Ratio ([6]; HCC827GR): 1.00
p-MET protein/actin ([7]; HCC827, control 1.17): 0.89
p-MET protein Ratio ([7]; HCC827): 0.76
p-MET protein/actin ([7]; HCC827GR, control 1.14): 1.03
p-MET protein Ratio ([7]; HCC827GR): 0.91
p-AKT protein/actin ([8]; HCC827, control 1.00): 0.79
p-AKT protein Ratio ([8]; HCC827): 0.79
p-AKT protein/actin ([8]; HCC827GR, control 1.04): 0.95
p-AKT protein Ratio ([8]; HCC827GR): 0.92
caspase3 protein/actin ([9]; HCC827, control 0.39): 0.48
caspase3 protein Ratio ([9]; HCC827): 1.23
caspase3 protein/actin ([9]; HCC827GR, control 0.59): 0.90
caspase3 protein Ratio ([9]; HCC827GR): 1.54
cleaved caspase-3 level [9, 15]: significantly prevented the increase
PARP protein/actin ([10]; HCC827, control 0.96): 1.00
PARP protein Ratio ([10]; HCC827): 1.04
PARP protein/actin ([10]; HCC827GR, control 0.99): 1.32
PARP protein Ratio ([10]; HCC827GR): 1.33
cleaved PARP level [10, 15]: significantly prevented the increase

C[C@@H](c1ccc2nccn2c1)n1nnc2ncc(-c3cnn(C)c3)nc21 [SAV, savolitinib, reference compound]
cell viability ([11]; 24 h, mean, n=3): 95.55%
cell viability ([11]; 24 h, replicate 1): 94.16%
cell viability ([11]; 24 h, replicate 2): 96.61%
cell viability ([11]; 24 h, replicate 3): 95.89%
cell viability ([11]; 48 h, mean, n=3): 94.28%
cell viability ([11]; 48 h, replicate 1): 94.71%
cell viability ([11]; 48 h, replicate 2): 94.13%
cell viability ([11]; 48 h, replicate 3): 94.00%
cell viability ([1]; 24 h, mean, n=3): 97.44%
cell viability ([1]; 24 h, replicate 1): 102.35%
cell viability ([1]; 24 h, replicate 2): 94.96%
cell viability ([1]; 24 h, replicate 3): 95.02%
cell viability ([1]; 48 h, mean, n=3): 94.70%
cell viability ([1]; 48 h, replicate 1): 91.23%
cell viability ([1]; 48 h, replicate 2): 97.86%
cell viability ([1]; 48 h, replicate 3): 95.02%
cell viability ([2]; 24 h, mean, n=3): 98.31%
cell viability ([2]; 24 h, replicate 1): 97.97%
cell viability ([2]; 24 h, replicate 2): 99.14%
cell viability ([2]; 24 h, replicate 3): 97.82%
cell viability ([2]; 48 h, mean, n=3): 95.26%
cell viability ([2]; 48 h, replicate 1): 95.75%
cell viability ([2]; 48 h, replicate 2): 95.82%
cell viability ([2]; 48 h, replicate 3): 94.21%
colony formation, in words [12]: did not significantly alter the colony size and count
colony size, Control % [12]: 94.26%
colony number, Control % [3]: 90.34%
colony size, Control % [3]: 125.91%
colony formation, in words ([3]; SAV 2 nM): did not significantly alter the colony size and count

Z-Val-Ala-Asp-(OMe)-fluoromethyl ketone [Z-VAD-FMK]
DBG-mediated inhibition of viability with Z-VAD-FMK ([13]; Z-VAD-FMK 12 µM, 3 h, DBG 48 h): significantly recovered
DBG-induced apoptosis with Z-VAD-FMK ([13]; Z-VAD-FMK pretreatment, cell line not specified (NSCLC cells)): prevented the DBG-induced apoptosis
DBG-mediated inhibition of viability with Z-VAD-FMK [14]: significantly recovered
